# Experimental data as given in patent US5567692A, “9-[(substituted glycyl) amido)]-6-demethyl-6-deoxytetracyclines” (priority 1995, dated 1996).
# Where a name gives a salt, the structure may show the parent alone. Read-outs that look alike come from different tables or passages of the source.
# Assays:
# Assay type in all cases: cell-based
# [1] = tested on: E. coli J2175; assay: MIC, agar dilution; settings: Escherichia coli, 18 h, read-out: MIC
# [2] = tested on: S. marcescens FPOR 8733; assay: MIC, agar dilution; settings: Serratia marcescens, FPOR8733, 18 h
# [3] = tested on: S. hemolyticus AVHAH 88-3; assay: MIC, agar dilution; settings: Streptococcus pyogenes, AVHAH883, 18 h
# [4] = tested on: E. coli ATCC 25922; assay: MIC, agar dilution; settings: Escherichia coli, ATCC25922, 18 h
# [5] = tested on: S. aureus ROSE (MP); assay: MIC, agar dilution; settings: Staphylococcus aureus, 18 h
# [6] = tested on: E. faecalis ATCC 29212; assay: MIC, agar dilution; settings: Enterococcus faecalis, ATCC29212, 18 h, E. faecalis ATCC 29212; read-out: MIC
# [7] = tested on: E. coli J3272 Tet D; assay: microbe, parasite or virus in culture; settings: Escherichia coli, J3272TETD, 18 h
# [8] = tested on: S. aureus UBMS 88-7 Tet K; assay: microbe, parasite or virus in culture; settings: Staphylococcus aureus, UBMS887TETK, 18 h
# [9] = tested on: S. aureus NEMC 8769; assay: MIC, agar dilution; settings: Staphylococcus aureus, NEMC8769, 18 h
# [10] = tested on: E. coli UBMS 90-5; assay: microbe, parasite or virus in culture; settings: Escherichia coli, UBMS905, 18 h, E. coli UBMS 90-5; read-out: MIC
# [11] = tested on: E. coli BAJ9003 IMP MUT; assay: microbe, parasite or virus in culture; settings: Escherichia coli, BAJ9003IMPMUT, 18 h
# [12] = tested on: E. coli UBMS 89-1 Tet M; assay: microbe, parasite or virus in culture; settings: Escherichia coli, UBMS891TETM, 18 h
# [13] = tested on: E. coli UBMS 90-4 Tet M; assay: microbe, parasite or virus in culture; settings: Escherichia coli, UBMS904TETM, 18 h
# [14] = tested on: S. aureus UBMS 88-4; assay: MIC, agar dilution; settings: Staphylococcus aureus, UBMS884, 18 h
# [15] = tested on: E. coli J3272 Tet C; assay: microbe, parasite or virus in culture; settings: Escherichia coli, J3272TETC, 18 h
# [16] = tested on: Ps. aeruginosa ATCC 27853; assay: MIC, agar dilution; settings: Pseudomonas aeruginosa, ATCC27853, 18 h
# [17] = tested on: S. aureus IVES 1983; assay: MIC, agar dilution; settings: Staphylococcus aureus, IVES1983, 18 h
# [18] = tested on: S. aureus UBMS 90-3; assay: MIC, agar dilution; settings: Staphylococcus aureus, UBMS903, 18 h, S. aureus UBMS 90-3; read-out: MIC
# [19] = tested on: E. coli PRP1 Tet A; assay: microbe, parasite or virus in culture; settings: Escherichia coli, PRP1TETA, 18 h
# [20] = tested on: S. aureus IVES 2943; assay: MIC, agar dilution; settings: Staphylococcus aureus, IVES2943, 18 h
# [21] = tested on: E. coli MC 4100 Tet sens.; assay: MIC, agar dilution; settings: Escherichia coli, 18 h
# [22] = tested on: Enterococcus 12201; assay: MIC, agar dilution; settings: Enterococcus, 12201, 18 h
# [23] = tested on: S. aureus UBMS 90-1 Tet M; assay: microbe, parasite or virus in culture; settings: Staphylococcus aureus, UBMS901TETM, 18 h
# [24] = tested on: E. coli UBMS 88-1 Tet B; assay: microbe, parasite or virus in culture; settings: Escherichia coli, UBMS881TETB, 18 h
# [25] = tested on: S. aureus ATCC 29213; assay: MIC, agar dilution; settings: Staphylococcus aureus, ATCC29213, 18 h, S. aureus ATCC 29213
# [26] = tested on: X. maltophilia NEMC 87210; assay: MIC, agar dilution; settings: Stenotrophomonas maltophilia, NEMC87210, 18 h
# [27] = tested on: S. aureus UBMS 88-5 Tet M; assay: microbe, parasite or virus in culture; settings: Staphylococcus aureus, UBMS885TETM, 18 h
# [28] = tested on: E. coli #311 (MP); assay: MIC, agar dilution; settings: Escherichia coli, 18 h
# [29] = tested on: E. coli UBMS 89-2 Tet sens.; assay: MIC, agar dilution; settings: Escherichia coli, 18 h
# [30] = tested on: S. aureus SMITH (MP); assay: MIC, agar dilution; settings: Staphylococcus aureus, 18 h
# [31] = tested on: S. aureus UBMS 90-2 Tet M; assay: microbe, parasite or virus in culture; settings: Staphylococcus aureus, UBMS902TETM, 18 h
# [32] = tested on: E. coli MC 4100 TNIOC Tet B; assay: microbe, parasite or virus in culture; settings: Escherichia coli, 18 h
Compound,MIC [1] [µg/mL],MIC [2] [µg/mL],MIC [3] [µg/mL],MIC [4] [µg/mL],MIC [5] [µg/mL],MIC [6] [µg/mL],MIC [7] [µg/mL],MIC [8] [µg/mL],MIC [10] [µg/mL],MIC [11] [µg/mL],MIC [12] [µg/mL],MIC [13] [µg/mL],MIC [14] [µg/mL],MIC [15] [µg/mL],MIC [18] [µg/mL],MIC [19] [µg/mL],MIC [21] [µg/mL],MIC [22] [µg/mL],MIC [23] [µg/mL],MIC [24] [µg/mL],also measured
"CN(C)[C@@H]1C(O)=C(C(N)=O)C(=O)[C@@]2(O)C(O)=C3C(=O)c4c(ccc(NC(=O)CNCc5ccccn5)c4O)CC3CC12 (stereo partly drawn) [N, [4S-(4alpha,12aalpha)]-4-(Dimethylamino)-1,4,4a,5,5a,6,11,12a-octahydro-3,10,12,12a-tetrahydroxy-1,11-dioxo-9-[[[(2-pyridinylmethyl]amino]acetyl]amino]-2-naphthacenecarboxamide dihydrochloride]",> 32,> 32,> 32,32,> 32,4,32,> 32,32,2,16,16,8,> 32,4,32,8,8,8,> 32,"MIC [9]: 8 µg/mL; MIC [16]: > 32 µg/mL; MIC [17]: > 32 µg/mL; MIC [20]: > 32 µg/mL; MIC [25]: 8 µg/mL; MIC [26]: > 32 µg/mL; MIC [27]: 8 µg/mL; MIC [28]: 32 µg/mL; MIC [29]: 32 µg/mL; MIC ([30]; S. aureus SMITH (MP), read-out: MIC): 4 µg/mL; MIC [31]: 8 µg/mL; MIC [32]: 32 µg/mL"
"CC(C(=O)Nc1ccc2c(c1O)C(=O)C1=C(O)[C@]3(O)C(=O)C(C(N)=O)=C(O)[C@@H](N(C)C)C3CC1C2)N(C)C (stereo partly drawn) [B, [4S-(4alpha,12aalpha)]-4-(Dimethylamino)-9-[[2-(dimethylamino)-1-oxopropyl]amino]-1,4,4a,5,5a,6,11,12a-octahydro-3,10,12,12a-tetrahydroxy-1,11-dioxo-2-naphthacenecarboxamide dihydrochloride]",1,8,1,0.5,4,0.25,0.5,1,0.5,0.25,0.5,0.5,0.25,1,0.06,2,0.25,0.25,0.5,1,"MIC ([9]; read-out: MIC): 0.06 µg/mL; MIC ([16]; Ps. aeruginosa ATCC 27853, read-out: MIC): 32 µg/mL; MIC ([17]; S. aureus IVES 1983, read-out: MIC): 1 µg/mL; MIC ([20]; S. aureus IVES 2943, read-out: MIC): 1 µg/mL; MIC ([25]; read-out: MIC): 0.25 µg/mL; MIC [26]: 2 µg/mL; MIC [27]: 0.5 µg/mL; MIC [28]: 0.5 µg/mL; MIC [29]: 1 µg/mL; MIC [30]: 0.25 µg/mL; MIC [31]: 0.25 µg/mL; MIC [32]: 0.5 µg/mL"
